Laboratory results published in ChEMBL document CHEMBL4725331, “An investigative study of antitumor properties of a novel thiazolo[4,5-d]pyrimidine small molecule revealing superior antitumor activity with CDK1 selectivity and potent pro-apoptotic properties” (Bioorg Med Chem, 2020).

Legend:
Format in all cases: functional
SW-620 = test: Antiproliferative activity against human SW-620 cells assessed as inhibition of cell growth at 10 uM measured after 48 hrs by SRB assay relative to control
EKVX = test: Antiproliferative activity against human EKVX cells assessed as inhibition of cell growth measured after 48 hrs by SRB assay
SF-539 = test: Antiproliferative activity against human SF-539 cells assessed as inhibition of cell growth at 10 uM measured after 48 hrs by SRB assay relative to control
HCC 2998 = test: Antiproliferative activity against human HCC 2998 cells assessed as inhibition of cell growth at 10 uM measured after 48 hrs by SRB assay relative to control
Malme-3M = test: Antiproliferative activity against human Malme-3M cells assessed as inhibition of cell growth measured after 48 hrs by SRB assay
SK-MEL-28 = test: Antiproliferative activity against human SK-MEL-28 cells assessed as inhibition of cell growth measured after 48 hrs by SRB assay
NCI-H23 = test: Antiproliferative activity against human NCI-H23 cells assessed as inhibition of cell growth at 10 uM measured after 48 hrs by SRB assay relative to control
RPMI-8226 = test: Antiproliferative activity against human RPMI-8226 cells assessed as inhibition of cell growth at 10 uM measured after 48 hrs by SRB assay relative to control
NCI-H226 = test: Antiproliferative activity against human NCI-H226 cells assessed as inhibition of cell growth measured after 48 hrs by SRB assay
PC-3 = test: Antiproliferative activity against human PC-3 cells assessed as inhibition of cell growth at 10 uM measured after 48 hrs by SRB assay relative to control
MDA-MB-435 = test: Antiproliferative activity against human MDA-MB-435 cells assessed as inhibition of cell growth at 10 uM measured after 48 hrs by SRB assay relative to control
Hs-578T = test: Antiproliferative activity against human Hs-578T cells assessed as inhibition of cell growth at 10 uM measured after 48 hrs by SRB assay relative to control
A549 = test: Antiproliferative activity against human A549 cells assessed as inhibition of cell growth measured after 48 hrs by SRB assay
SF-268 = test: Antiproliferative activity against human SF-268 cells assessed as inhibition of cell growth measured after 48 hrs by SRB assay
HL-60(TB) = test: Antiproliferative activity against human HL-60(TB) cells assessed as inhibition of cell growth measured after 48 hrs by SRB assay
HT-29 = test: Antiproliferative activity against human HT-29 cells assessed as inhibition of cell growth measured after 48 hrs by SRB assay
NCI-H322M = test: Antiproliferative activity against human NCI-H322M cells assessed as inhibition of cell growth at 10 uM measured after 48 hrs by SRB assay relative to control
HCT-15 = test: Antiproliferative activity against human HCT-15 cells assessed as inhibition of cell growth measured after 48 hrs by SRB assay
[1] = read-out: LC50 (the source's name)

COc1ccc(-n2c(=S)sc3c(Cl)nc(C)nc32)c(OC)c1 showed an inhibition at 10 µM (SW-620) of over 50%, a GI50 (EKVX) of 4.57 µM and a TGI (EKVX) of 17 µM. It also gave a CC50 (EKVX; [1]) of 43.6 µM, an inhibition at 10 µM (SF-539) of over 50% and an inhibition at 10 µM (HCC 2998) of over 50%. It also gave a GI50 (Malme-3M) of 2.24 µM, a TGI (Malme-3M) of 6.17 µM and a CC50 (Malme-3M; [1]) of 27.5 µM. It also gave a GI50 (SK-MEL-28) of 2.19 µM, a TGI (SK-MEL-28) of 4.57 µM and a CC50 (SK-MEL-28; [1]) of 9.77 µM. For the same molecule, the inhibition at 10 µM (NCI-H23) was over 50%, the inhibition at 10 µM (RPMI-8226) was over 50% and the GI50 (NCI-H226) was 3.24 µM. The TGI (NCI-H226) was 12 µM, the CC50 (NCI-H226; [1]) was 44.7 µM and the inhibition at 10 µM (PC-3) was over 50%. The inhibition at 10 µM (MDA-MB-435) was over 50%, the inhibition at 10 µM (Hs-578T) was over 50% and the GI50 (A549) was 4.47 µM. It also gave a TGI (A549) of 15.8 µM, a CC50 (A549; [1]) of 40.7 µM and a GI50 (SF-268) of 2.19 µM. It also gave a TGI (SF-268) of 5.25 µM, a CC50 (SF-268; [1]) of 17 µM and a GI50 (HL-60(TB)) of 1.41 µM. It also gave a TGI (HL-60(TB)) of 5.89 µM, a CC50 (HL-60(TB); [1]) of over 100 µM and a GI50 (HT-29) of 2.4 µM. It also gave a TGI (HT-29) of 6.31 µM, a CC50 (HT-29; [1]) of 57.5 µM and an inhibition at 10 µM (NCI-H322M) of over 50%. For the same molecule, the GI50 (HCT-15) was 1.95 µM, the TGI (HCT-15) was 5.37 µM and the CC50 (HCT-15; [1]) was 41.7 µM.
